# Reference: ChEMBL document CHEMBL5036346, “Role of Chain Length and Degree of Unsaturation of Fatty Acids in the Physicochemical and Pharmacological Behavior of Drug-Fatty Acid Conjugates in Diabetes” (J Med Chem, 2021)
# Active and inactive are the calls of the source. No cut-off for these calls is given here.
# Experiments:
# Rattus norvegicus [1] = assay: Antidiabetic activity against STZ-induced diabetic Wistar rat model assessed as decrease in fasting blood glucose level at 15 mg/kg, ip administered once daily for 5 weeks and measured after 5 weeks by glucometric analysis; type: functional, organism-based
# MIN6 [2] = assay: Cytotoxicity against mouse MIN6 cells assessed as cell viability at 20 uM equiv. LSF measured after 48 hrs by MTT assay; type: cell-based; conditions: min6, 48 h
# Albumin [3] = molecular target: T1, Albumin (Bos taurus, UniProt P02769); assay: Binding affinity to bovine serum albumin assessed as decrease in fluorescence intensity measured after 30 mins by fluorescence quenching method; type: ADME; conditions: cattle, isolated protein, 0.5 h
# [4] = AUMC (0 to infinity) in Wistar rat at 15 mg/kg, iv by HPLC analysis; type: ADME, organism-based; conditions: in vivo
# Rattus norvegicus [5] = assay: Antidiabetic activity against STZ-induced diabetic Wistar rat model assessed as decrease in fasting blood glucose level at 15 mg/kg, ip administered once daily for 5 weeks and measured after 3 weeks by glucometric analysis; type: functional, organism-based
# [6] = Elimination rate constant in Wistar rat at 15 mg/kg,iv measured after 24 hrs by HPLC analysis; type: ADME, organism-based; conditions: in vivo
# [7] = AUC (0 to infinity) in Wistar rat at 15 mg/kg, iv by HPLC analysis; type: ADME, organism-based; parameters: time infinity, route intravenous, dose 15 mg/kg; conditions: in vivo
# [8] = Initial plasma concentration in Wistar rat at 15 mg/kg, iv by HPLC analysis; type: ADME, organism-based
# [9] = MRT in Wistar rat at 15 mg/kg, iv measured after 24 hrs by HPLC analysis; type: ADME, organism-based; conditions: in vivo
# [10] = AUC (0 to t) in Wistar rat at 15 mg/kg, iv measured after 24 hrs by HPLC analysis; type: ADME, organism-based; parameters: route intravenous, dose 15 mg/kg, time 24 hrs; conditions: in vivo
# [11] = Half life in Wistar rat at 15 mg/kg, iv measured after 24 hrs by HPLC analysis; type: ADME, organism-based; conditions: in vivo
# [12] = Clearance in Wistar rat at 15 mg/kg, iv measured after 24 hrs by HPLC analysis; type: ADME, organism-based; conditions: in vivo
# Rattus norvegicus [13] = assay: Protection against STZ-induced pancreatic beta cell destruction in Wistar rat assessed as proper arrangement of islets at 15 mg/kg, ip administered once daily for 5 weeks and measured on day 35 by Hematoxylin and eosin staining based analysis; type: functional, organism-based
# [14] = AUMC (0 to t) in Wistar rat at 15 mg/kg, iv measured after 24 hrs by HPLC analysis; type: ADME, organism-based; conditions: in vivo
# [15] = Volume of distribution in Wistar rat at 15 mg/kg, iv measured after 24 hrs by HPLC analysis; type: ADME, organism-based; conditions: in vivo
# Erythrocyte = assay: Induction of hemolysis in Wistar rat RBC at 20 uM equiv. LSF measured after 1 hr by spectrophotometric method; type: cell-based
# MIN6 [16] = assay: Cytoprotective activity against cytokine-mediated cytotoxicity in mouse MIN6 cells assessed as increase in cell viability at 20 uM equiv. LSF incubated for 48 hrs in presence of cocktail of cytokines TNF-alpha/IL-1-beta/IFN-gamma by MTT assay; type: functional, cell-based
# [17] = Aggregation property of the compound assessed as critical micelle concentration by fluorescence based analysis; type: physicochemical
# [18] = AUMC (0 to infinity) in Wistar rat at 30 mg/kg, iv by HPLC analysis; type: ADME, organism-based; conditions: in vivo
# [19] = AUC (0 to infinity) in Wistar rat at 30 mg/kg, iv by HPLC analysis; type: ADME, organism-based; parameters: time infinity, route intravenous, dose 30 mg/kg; conditions: in vivo; for AUC(0-inf): Wistar
# Rattus norvegicus [20] = assay: Protection against STZ-induced oxidative stress-mediated liver toxicity in Wistar rat assessed as reduction in plasma ASAT level at 30 mg/kg, ip administered once daily for 5 weeks measured after 3 to 5 weeks; type: functional, organism-based; conditions: time 3-5 weeks
# Rattus norvegicus [21] = assay: Antidiabetic activity against STZ-induced diabetic Wistar rat model assessed as decrease in mortality at 30 mg/kg, ip administered once daily for 5 weeks; type: functional, organism-based
# [22] = MRT in Wistar rat at 30 mg/kg, iv measured after 24 hrs by HPLC analysis; type: ADME, organism-based; conditions: in vivo
# [23] = AUMC (0 to t) in Wistar rat at 30 mg/kg, iv measured after 24 hrs by HPLC analysis; type: ADME, organism-based; conditions: in vivo
# [24] = Prodrug release in rat plasma assessed as intact parent compound remaining measured after 72 hrs by HPLC analysis; type: ADME, cell-free
# Rattus norvegicus [25] = assay: Protection against STZ-induced renal toxicity in Wistar rat assessed as reduction in plasma uric acid level at 30 mg/kg, ip administered once daily for 5 weeks measured after 3 to 5 weeks; type: functional, organism-based; conditions: time 3-5 weeks
# [26] = Drug uptake in mouse MIN6 cells assessed as lisofylline-level in cell lysates at 20 uM equiv. LSF measured after 6 hrs by HPLC analysis; type: ADME, subcellular; conditions: min6, 6 h
# Rattus norvegicus [27] = assay: Antidiabetic activity against STZ-induced diabetic Wistar rat model assessed as decrease in fasting blood glucose level at 30 mg/kg, ip administered once daily for 5 weeks and measured after 5 weeks by glucometric analysis; type: functional, organism-based
# [28] = AUC (0 to t) in Wistar rat at 30 mg/kg, iv measured after 24 hrs by HPLC analysis; type: ADME, organism-based; parameters: route intravenous, time 24 hrs, dose 30 mg/kg; conditions: in vivo
# Rattus norvegicus [29] = assay: Protection against STZ-induced dyslipidemia in Wistar rat assessed as reduction in plasma cholesterol level at 30 mg/kg, ip administered once daily for 5 weeks measured after 3 to 5 weeks; type: functional, organism-based; conditions: time 3-5 weeks
# [30] = Volume of distribution in Wistar rat at 30 mg/kg, iv measured after 24 hrs by HPLC analysis; type: ADME, organism-based; conditions: in vivo
# Rattus norvegicus [31] = assay: Antidiabetic activity against STZ-induced diabetic Wistar rat model assessed as increase in plasma insulin level at 30 mg/kg, ip administered once daily for 5 weeks and measured after 3 to 5 weeks; type: functional, organism-based; conditions: time 3-5 weeks
# Rattus norvegicus [32] = assay: Protection against STZ-induced inflammation in Wistar rat assessed as reduction in CD8+ T-cell infiltration into pancreatic islets at 30 mg/kg, ip administered once daily for 5 weeks and measured on day 35 by […] based analysis; type: functional, organism-based
# [33] = Clearance in Wistar rat at 30 mg/kg, iv measured after 24 hrs by HPLC analysis; type: ADME, organism-based; conditions: in vivo
# Rattus norvegicus [34] = assay: Protection against STZ-induced oxidative stress-mediated liver toxicity in Wistar rat assessed as reduction in plasma ALAT level at 30 mg/kg, ip administered once daily for 5 weeks measured after 3 to 5 weeks; type: functional, organism-based; conditions: time 3-5 weeks
# [35] = Elimination rate constant in Wistar rat at 30 mg/kg,iv measured after 24 hrs by HPLC analysis; type: ADME, organism-based; conditions: in vivo
# [36] = Half life in Wistar rat at 30 mg/kg, iv measured after 24 hrs by HPLC analysis; type: ADME, organism-based; conditions: in vivo; for half-life: Wistar
# Rattus norvegicus [37] = assay: Protection against STZ-induced inflammation in Wistar rat assessed as reduction in CD4+ T-cell infiltration into pancreatic islets at 30 mg/kg, ip administered once daily for 5 weeks and measured on day 35 by […] based analysis; type: functional, organism-based
# [38] = Initial plasma concentration in Wistar rat at 30 mg/kg, iv by HPLC analysis; type: ADME, organism-based
# Rattus norvegicus [39] = assay: Protection against STZ-induced pancreatic beta cell destruction in Wistar rat assessed as proper arrangement of islets at 30 mg/kg, ip administered once daily for 5 weeks and measured on day 35 by Hematoxylin and eosin staining based analysis; type: functional, organism-based
# Rattus norvegicus [40] = assay: Antidiabetic activity against STZ-induced diabetic Wistar rat model assessed as decrease in fasting blood glucose level at 30 mg/kg, ip administered once daily for 5 weeks and measured after 3 weeks by glucometric analysis; type: functional, organism-based
# Rattus norvegicus [41] = assay: Protection against STZ-induced dyslipidemia in Wistar rat assessed as reduction in plasma triglyceride level at 30 mg/kg, ip administered once daily for 5 weeks measured after 3 to 5 weeks; type: functional, organism-based; conditions: time 3-5 weeks
# Albumin [42] = molecular target: T1, Albumin; assay: Binding affinity to bovine serum albumin assessed as bathochromic peak shift measured after 30 mins by fluorescence quenching method; type: ADME; conditions: cattle, isolated protein, 0.5 h
# T1 sequence (P02769 whole entry): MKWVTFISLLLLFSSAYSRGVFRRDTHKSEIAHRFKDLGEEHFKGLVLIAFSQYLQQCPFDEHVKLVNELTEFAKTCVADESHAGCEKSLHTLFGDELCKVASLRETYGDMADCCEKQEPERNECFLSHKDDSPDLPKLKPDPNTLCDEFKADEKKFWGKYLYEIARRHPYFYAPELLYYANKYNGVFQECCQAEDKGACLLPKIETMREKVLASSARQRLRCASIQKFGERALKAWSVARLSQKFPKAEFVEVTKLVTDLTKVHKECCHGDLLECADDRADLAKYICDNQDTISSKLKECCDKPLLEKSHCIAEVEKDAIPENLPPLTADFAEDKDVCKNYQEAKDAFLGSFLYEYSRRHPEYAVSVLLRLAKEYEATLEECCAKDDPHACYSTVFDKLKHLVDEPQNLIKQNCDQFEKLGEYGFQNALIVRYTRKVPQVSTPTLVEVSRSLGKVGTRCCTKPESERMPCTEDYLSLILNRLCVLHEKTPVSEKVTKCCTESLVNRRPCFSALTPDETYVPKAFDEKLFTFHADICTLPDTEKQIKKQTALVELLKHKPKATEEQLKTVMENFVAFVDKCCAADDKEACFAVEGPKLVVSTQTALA
Compound,Activity (MIN6 [2]),Kb (Albumin [3]),Activity (Erythrocyte),Activity (MIN6 [16]),CMC [17] [µg/mL],AUMC [18] [ng·h²/mL],Activity (Rattus norvegicus [20]),AUMCt [23] [ng·h²/mL],Activity (Rattus norvegicus [25]),AUC(0-t) at 24 h [28] [ng·h/mL],Activity (Rattus norvegicus [29]),Vd [30] [L/kg],Activity (Rattus norvegicus [31]),Activity (Rattus norvegicus [32]),Activity (Rattus norvegicus [34]),k el at 24 h [35] [s⁻¹],Activity (Rattus norvegicus [37]),C0 [38] [ng/mL],Activity (Rattus norvegicus [39]),Activity (Rattus norvegicus [41]),also measured
C[C@@H](O)CCCCn1c(=O)c2c(ncn2C)n(C)c1=O [LISOFYLLINE],Non-Toxic,6.32 10^4L/mol,–,–,–,–,–,–,–,–,–,–,–,–,–,–,–,–,–,–,Activity (Rattus norvegicus [1]): Active; AUMC [4]: 12800 ng·h²/mL; Activity (Rattus norvegicus [5]): Active; k el at 24 h [6]: 0.000257 s⁻¹; AUC(0-inf) [7]: 14700 ng·h/mL; C0 [8]: 16400 ng/mL; MRT [9]: 0.818 h; AUC(0-t) at 24 h [10]: 14700 ng·h/mL; half-life [11]: 0.752 h; clearance [12]: 17 mL/min/kg; Activity (Rattus norvegicus [13]): Active; AUMCt [14]: 12100 ng·h²/mL; Vd [15]: 0.962 L/kg
CCCCCCCCC=CCCCCCCCC(=O)OC(C)CCCCn1c(=O)c2c(ncn2C)n(C)c1=O (configuration not stated),Non-Toxic,6.34 10^4L/mol,Non-Toxic,Active,7.58,43200,Active,30500,Active,6110,Active,15,Active,Active,Active,4.44e-05,Active,4750,Active,Active,"AUC(0-inf) [19]: 6640 ng·h/mL; Activity (Rattus norvegicus [21]): Active; MRT ([22]; Wistar, read-out: MRT): 7.91 h; Stability [24]: 9.74%; Drug uptake [26]: 56 ng; Activity (Rattus norvegicus [27]): Active; clearance [33]: 40.3 mL/min/kg; half-life [36]: 4.44 h; Activity (Rattus norvegicus [40]): Active"
CCCCCCCCCCCCCCCC(=O)OC(C)CCCCn1c(=O)c2c(ncn2C)n(C)c1=O (configuration not stated),Non-Toxic,5.55 10^4L/mol,Non-Toxic,Active,7.4,24800,Active,29900,Active,3490,Active,13.8,Active,Active,Active,4.72e-05,Active,267,Active,Active,"AUC(0-inf) [19]: 3890 ng·h/mL; Activity (Rattus norvegicus [21]): Active; MRT ([22]; Wistar, read-out: MRT): 9.07 h; Activity (Albumin [42]): Active; Drug uptake [26]: Active; Activity (Rattus norvegicus [27]): Active; clearance [33]: 64.9 mL/min/kg; half-life [36]: 3.59 h; Activity (Rattus norvegicus [40]): Active"
CCCCC/C=C/CC=CCCCCCCCC(=O)OC(C)CCCCn1c(=O)c2c(ncn2C)n(C)c1=O (configuration not stated),Non-Toxic,2.7 10^4L/mol,Non-Toxic,Active,0.81,98700,Active,77100,Active,16200,Active,2.59,Active,Active,Active,6.39e-05,Active,4900,Active,Active,"AUC [19]: 16984.11 ng·h/mL; MRT ([22]; Wistar, read-out: MRT): 6.55 h; Drug uptake [26]: Active; half-life [36]: 3.12 h"
CC(CCCCn1c(=O)c2c(ncn2C)n(C)c1=O)OC(=O)CCCCC1CCSS1 (configuration not stated),Non-Toxic,2.05 10^4L/mol,Non-Toxic,Active,6.31,77300,Active,67500,Active,13500,Active,1.77,Active,Active,Active,0.000142,Active,4120,Active,Active,"AUC [19]: 13838.8 ng·h/mL; MRT ([22]; 30 mg/kg, 24 h): 5.16 h; Activity (Rattus norvegicus [27]): inactive; t1/2 ([36]; 30 mg/kg, 24 h): 1.26 h; Activity (Rattus norvegicus [40]): inactive"
